{
  "source": "patent US7772228B2",
  "about": "“Method for treatment of bacterial infections with once or twice-weekly administered rifalazil” (priority 1998, dated 2010)",
  "key": {"[1]": {"assay": "Clinical trial 005, rifalazil concentration in plasma of tuberculosis patients", "assay_type": "in vivo, human", "settings": "human, plasma; for concentration at 5 h: Hour 5; for concentration at 9 h: Hour 9; for concentration at 12 h: Hour 12; for concentration at 24 h: Hour 24; for concentration at 48 h: Hour 48; for concentration at 72 h: Hour 72; for concentration at 0 h: Hour 0; for concentration at 2 h: Hour 2", "description": "Definite diagnosis and evaluation of treatment efficacy requires direct examination of sputum for the presence of M. tuberculosis. The extent of M. tuberculosis infection is determined by number of bacteria able to form colonies and is expressed as colony forming units. When the number of colony forming units (CFU) is high, the infection is unhindered. When the CFU decreases, the number of active M. tuberculosis bacteria decreases. The CFU, typically expressed as Log10, have therefore important diagnostic and treatment evaluative value.\nTable 21 summarizes the plasma concentrations data of rifalazil measured in patients that received rifalazil at zero hour. The data are separated into 2 groups and are identified as INH+10 mg rifalazil (Group 3) and INH+25 mg rifalazil (Group 4). The concentration of rifalazil in plasma is presented in ng/mL and are shown as a timecourse (hours and days) wherein values were determined at several times over the two weeks of the study."}, "[2]": {"system": "M. tuberculosis in human macrophages", "settings": "intracellular, cited from earlier work"}, "[3]": {"system": "Chlamydia pneumoniae strain TW-l 83", "assay": "Sensitivity testing in cell cultures", "assay_type": "cell-based", "description": "Sensitivity testing was conducted in cell cultures against Chlamydia pneumoniae strain TW-l 83 using rifalazil, clanthromycin, or azithromycin. […] The in vivo testing of rifalazil used a mouse model infected with Chlamydia pneumoniae strain AR-39. […] All control animals remained infected."}, "[4]": {"system": "M. tuberculosis strain Erdman", "settings": "cited from earlier work"}, "M. intracellulare": {"system": "M. intracellulare", "assay": "Mice infected with M. intracellulare, CFUs in organs", "assay_type": "in vivo", "settings": "after four and eight weeks of treatment"}, "[5]": {"settings": "INH + 10 mg KRM, read-out: Rifalazil Concentration in Plasma, Med"}, "[6]": {"settings": "INH + 10 mg KRM, read-out: Rifalazil Concentration in Plasma, Min"}, "[7]": {"settings": "INH + 10 mg KRM, read-out: Rifalazil Concentration in Plasma, Max"}, "[8]": {"settings": "INH + 10 mg KRM, read-out: Rifalazil Concentration in Plasma, Mean"}, "[9]": {"settings": "INH + 25 mg KRM, read-out: Rifalazil Concentration in Plasma, Max"}, "[10]": {"settings": "INH + 25 mg KRM, read-out: Rifalazil Concentration in Plasma, Mean"}, "[11]": {"settings": "INH + 25 mg KRM, read-out: Rifalazil Concentration in Plasma, Med"}, "[12]": {"settings": "INH + 25 mg KRM, read-out: Rifalazil Concentration in Plasma, Min"}},
  "note": "Where two headings read alike, the source gives them in different places.",
  "data": [
    {"smiles": "CO[C@H]1/C=C/O[C@@]2(C)Oc3c(C)c(O)c4c(=O)c(c5oc6cc(N7CCN(CC(C)C)CC7)cc(O)c6nc-5c4c3C2=O)NC(=O)/C(C)=C\\C=C\\[C@H](C)[C@H](O)[C@@H](C)[C@@H](O)[C@@H](C)[C@H](OC(C)=O)[C@@H]1C", "note": "[Rifalazil, 3′-hydroxy-5′-(4-isobutyl-1-piperazinyl)benzoxasinorifamycin]", "values": [
      {"measurement": "concentration at 5 h", "setting": "[1]; [5]", "result": 11.9, "unit": "ng/mL"},
      {"measurement": "concentration at 5 h", "setting": "[1]; [6]", "result": 4.2, "unit": "ng/mL"},
      {"measurement": "concentration at 9 h", "setting": "[1]; [7]", "result": 19.2, "unit": "ng/mL"},
      {"measurement": "concentration at 9 h", "setting": "[1]; [8]", "result": 9.75, "unit": "ng/mL"},
      {"measurement": "concentration at 9 h", "setting": "[1]; [5]", "result": 10.3, "unit": "ng/mL"},
      {"measurement": "concentration at 9 h", "setting": "[1]; [6]", "result": 3, "unit": "ng/mL"},
      {"measurement": "concentration at 12 h", "setting": "[1]; [7]", "result": 11.9, "unit": "ng/mL"},
      {"measurement": "concentration at 12 h", "setting": "[1]; [8]", "result": 10.7, "unit": "ng/mL"},
      {"measurement": "concentration at 12 h", "setting": "[1]; [5]", "result": 11.4, "unit": "ng/mL"},
      {"measurement": "concentration at 12 h", "setting": "[1]; [6]", "result": 6.2, "unit": "ng/mL"},
      {"measurement": "concentration at 24 h", "setting": "[1]; [7]", "result": 5, "unit": "ng/mL"},
      {"measurement": "concentration at 24 h", "setting": "[1]; [8]", "result": 3.6, "unit": "ng/mL"},
      {"measurement": "concentration at 24 h", "setting": "[1]; [5]", "result": 3.55, "unit": "ng/mL"},
      {"measurement": "concentration at 24 h", "setting": "[1]; [6]", "result": 2.3, "unit": "ng/mL"},
      {"measurement": "concentration at 48 h", "setting": "[1]; [7]", "result": 2.5, "unit": "ng/mL"},
      {"measurement": "concentration at 48 h", "setting": "[1]; [8]", "result": 1.4, "unit": "ng/mL"},
      {"measurement": "concentration at 48 h", "setting": "[1]; [5]", "result": 2.5, "unit": "ng/mL"},
      {"measurement": "concentration at 48 h", "setting": "[1]; [6]", "result": 2.2, "unit": "ng/mL"},
      {"measurement": "concentration at 72 h", "setting": "[1]; [7]", "result": 2.2, "unit": "ng/mL"},
      {"measurement": "concentration at 72 h", "setting": "[1]; [5]", "result": 1, "unit": "ng/mL"},
      {"measurement": "concentration at 72 h", "setting": "[1]; [6]", "result": 0, "unit": "ng/mL"},
      {"measurement": "concentration at 0 h", "setting": "[1]; [9]", "result": 0, "unit": "ng/mL"},
      {"measurement": "concentration at 0 h", "setting": "[1]; [10]", "result": 0, "unit": "ng/mL"},
      {"measurement": "concentration at 0 h", "setting": "[1]; [11]", "result": 0, "unit": "ng/mL"},
      {"measurement": "concentration at 0 h", "setting": "[1]; [12]", "result": 0, "unit": "ng/mL"},
      {"measurement": "concentration at 2 h", "setting": "[1]; [9]", "result": 26.4, "unit": "ng/mL"},
      {"measurement": "concentration at 2 h", "setting": "[1]; [10]", "result": 15.3, "unit": "ng/mL"},
      {"measurement": "concentration at 2 h", "setting": "[1]; [11]", "result": 11.4, "unit": "ng/mL"},
      {"measurement": "concentration at 2 h", "setting": "[1]; [12]", "result": 2.3, "unit": "ng/mL"},
      {"measurement": "concentration at 5 h", "setting": "[1]; [9]", "result": 42.7, "unit": "ng/mL"},
      {"measurement": "concentration at 5 h", "setting": "[1]; [10]", "result": 25.5, "unit": "ng/mL"},
      {"measurement": "concentration at 5 h", "setting": "[1]; [11]", "result": 30.9, "unit": "ng/mL"},
      {"measurement": "concentration at 5 h", "setting": "[1]; [12]", "result": 5.5, "unit": "ng/mL"},
      {"measurement": "concentration at 9 h", "setting": "[1]; [9]", "result": 38.2, "unit": "ng/mL"},
      {"measurement": "concentration at 9 h", "setting": "[1]; [10]", "result": 21.6, "unit": "ng/mL"},
      {"measurement": "concentration at 9 h", "setting": "[1]; [11]", "result": 22.1, "unit": "ng/mL"},
      {"measurement": "concentration at 9 h", "setting": "[1]; [12]", "result": 4.2, "unit": "ng/mL"},
      {"measurement": "concentration at 12 h", "setting": "[1]; [9]", "result": 20.5, "unit": "ng/mL"},
      {"measurement": "concentration at 12 h", "setting": "[1]; [10]", "result": 16.3, "unit": "ng/mL"},
      {"measurement": "concentration at 12 h", "setting": "[1]; [11]", "result": 18.1, "unit": "ng/mL"},
      {"measurement": "concentration at 12 h", "setting": "[1]; [12]", "result": 11.1, "unit": "ng/mL"},
      {"measurement": "concentration at 24 h", "setting": "[1]; [9]", "result": 12.2, "unit": "ng/mL"},
      {"measurement": "concentration at 24 h", "setting": "[1]; [10]", "result": 7.72, "unit": "ng/mL"},
      {"measurement": "concentration at 24 h", "setting": "[1]; [11]", "result": 6.7, "unit": "ng/mL"},
      {"measurement": "concentration at 24 h", "setting": "[1]; [12]", "result": 4.3, "unit": "ng/mL"},
      {"measurement": "concentration at 48 h", "setting": "[1]; [9]", "result": 5.3, "unit": "ng/mL"},
      {"measurement": "concentration at 48 h", "setting": "[1]; [10]", "result": 2.15, "unit": "ng/mL"},
      {"measurement": "concentration at 48 h", "setting": "[1]; [11]", "result": 3.9, "unit": "ng/mL"},
      {"measurement": "concentration at 48 h", "setting": "[1]; [12]", "result": 0, "unit": "ng/mL"},
      {"measurement": "concentration at 72 h", "setting": "[1]; [9]", "result": 3.2, "unit": "ng/mL"},
      {"measurement": "concentration at 72 h", "setting": "[1]; [10]", "result": 2.15, "unit": "ng/mL"},
      {"measurement": "concentration at 72 h", "setting": "[1]; [11]", "result": 2.7, "unit": "ng/mL"},
      {"measurement": "concentration at 72 h", "setting": "[1]; [12]", "result": 0, "unit": "ng/mL"},
      {"measurement": "MBC", "setting": "[2]; strain Atencio", "result": 8, "unit": "ng/mL"},
      {"measurement": "MIC", "setting": "[2]; strain Atencio", "result": 4, "unit": "ng/mL"},
      {"measurement": "MBC", "setting": "[2]; strain Erdman", "result": 8, "unit": "ng/mL"},
      {"measurement": "MIC", "setting": "[2]; strain Erdman", "result": 8, "unit": "ng/mL"},
      {"measurement": "MBC", "setting": "[2]; strain H37Rv", "result": 16, "unit": "ng/mL"},
      {"measurement": "MIC", "setting": "[2]; strain H37Rv", "result": 4, "unit": "ng/mL"},
      {"measurement": "fold more potent than clanthromycin", "setting": "[3]", "result": 300, "unit": "fold"},
      {"measurement": "fold more potent than erythromycin", "setting": "[3]", "result": 1500, "unit": "fold"},
      {"measurement": "reduction of bacterial load in lungs and spleens, comparison of drugs", "setting": "[4]; 20 mg/kg, five times per week for four weeks", "result": "reduced bacterial loads to a significantly greater extent than the other two drugs"},
      {"measurement": "activity against organisms in lungs, comparison of treatments", "setting": "[4]; four weeks treatment", "result": "most active single-agent"},
      {"measurement": "cell counts in lungs compared to early controls", "setting": "[4]; four weeks treatment", "result": "significantly reduced cell counts in lungs"},
      {"measurement": "cell counts in lungs compared to late controls", "setting": "[4]; four weeks treatment", "result": "reduced cell counts in lungs"},
      {"measurement": "CFUs in the spleen", "setting": "[4]; rifalazil 20 mg/kg, PZA 150 mg/kg, four weeks", "result": "most active single-agent"},
      {"measurement": "number of CFUs in organs", "setting": "M. intracellulare", "result": "significantly reduced the number of colony forming units (CFUs) in organs"}
    ]}
  ]
}
